In US9889115B2, “Fitness assay and associated methods” (priority 1998, dated 2018):

Experiments:
Type in all cases: cell-based
[1] = system: multidrug-resistant strains of HIV-1; test: PHA-PBMC p24 assay, panel of eight multidrug-resistant clinical isolates; details: eight multidrug-resistant clinical isolates of Table 3
Experimental: (§1) The patient profiles are shown below in Table 2.
(§2) To determine protease inhibitory activity against multidrug resistant HIV, the IC50's were measured against a panel of clinically isolated mutant HIV isolates.
(§3) All drug sensitivities were performed in triplicate. In order to determine whether the HIV isolates were syncitium inducing (SI) or non-syncitium inducing (NSI), an aliquot of viral stock supernatant, containing 100 TCID50, was cultured with 1×10^5 MT-2 cells in a 12-well plate. Cultures were maintained for four weeks and were examined for syncytium formation twice a week.

[2] = system: multidrug-resistant HIV-1 clinical isolate, patient 1; test: PHA-PBMC assay, p24 Gag protein production; details: Human immunodeficiency virus 1; Patient/Isolate code 1; PHA-PBMC, p24
Experimental: as §1, §2, §3

[3] = system: multidrug-resistant HIV-1 clinical isolate, patient 7; test: PHA-PBMC assay, p24 Gag protein production; details: Human immunodeficiency virus 1; Patient/Isolate code 7; PHA-PBMC, p24
Experimental: as §1, §2, §3

[4] = system: multidrug-resistant HIV-1 clinical isolate, patient 4; test: PHA-PBMC assay, p24 Gag protein production; details: Human immunodeficiency virus 1; Patient/Isolate code 4; PHA-PBMC, p24
Experimental: as §1, §2, §3

[5] = system: multidrug-resistant HIV-1 clinical isolate, patient 8; test: PHA-PBMC assay, p24 Gag protein production; details: Human immunodeficiency virus 1; Patient/Isolate code 8; PHA-PBMC, p24
Experimental: as §1, §2, §3

[6] = system: multidrug-resistant HIV-1 clinical isolate, patient 3; test: PHA-PBMC assay, p24 Gag protein production; details: Human immunodeficiency virus 1; Patient/Isolate code 3; PHA-PBMC, p24
Experimental: as §1, §2, §3

[7] = system: HIV-1ERS104pre; test: PHA-PBMC assay, p24 Gag protein production; details: Human immunodeficiency virus 1; HIV-1ERS104pre, SI; PHA-PBMC, p24
Experimental: as §1, §2, §3

[8] = system: multidrug-resistant HIV-1 clinical isolate, patient 6; test: PHA-PBMC assay, p24 Gag protein production; details: Human immunodeficiency virus 1; Patient/Isolate code 6; PHA-PBMC, p24
Experimental: as §1, §2, §3

[9] = system: multidrug-resistant HIV-1 clinical isolate, patient 2; test: PHA-PBMC assay, p24 Gag protein production; details: Human immunodeficiency virus 1; Patient/Isolate code 2; PHA-PBMC, p24
Experimental: as §1, §2, §3

[10] = system: multidrug-resistant HIV-1 clinical isolate, patient 5; test: PHA-PBMC assay, p24 Gag protein production; details: Human immunodeficiency virus 1; Patient/Isolate code 5; PHA-PBMC, p24
Experimental: as §1, §2, §3

[11] = system: HIV-1BAL; test: PHA-PBMC assay, p24 Gag protein production; details: Human immunodeficiency virus 1; HIV-1BAL, NSI; PHA-PBMC, p24 (Table 3)
[12] = system: HIV-1LAI; test: PHA-PBMC assay, p24 Gag protein production; details: Human immunodeficiency virus 1; HIV-1LAI, SI; PHA-PBMC, p24 (Table 3)
[13] = system: wild-type HIV-1 (WT); test: IC50 against wild-type HIV-1 (Table 9a); details: Human immunodeficiency virus 1; (WT)
[14] = system: multidrug-resistant HIV-1 clinical isolate, patient 20; test: microbe, parasite or virus in culture; details: Human immunodeficiency virus 1; Patient Isolate 20
Experimental: (§4) The mutant multidrug-resistant HIV-1 strains corresponding to each patient, numbered 9-35, were genetically analyzed in terms of the nucleic acid sequences of the protease (PR) and a portion of the reverse transcriptase (RT) genes from which mutations in these enzymes were determined. The mutations in the protease and reverse transcriptase of the multidrug-resistant viruses isolated from each patient are shown below in Table 9b.

[15] = system: multidrug-resistant HIV-1 clinical isolate, patient 23; test: microbe, parasite or virus in culture; details: Human immunodeficiency virus 1; Patient Isolate 23
Experimental: as §4

[16] = system: multidrug-resistant HIV-1 clinical isolate, patient 15; test: microbe, parasite or virus in culture; details: Human immunodeficiency virus 1; Patient Isolate 15
Experimental: as §4

[17] = system: multidrug-resistant HIV-1 clinical isolate, patient 28; test: microbe, parasite or virus in culture; details: Human immunodeficiency virus 1; Patient Isolate 28
Experimental: as §4

[18] = system: multidrug-resistant HIV-1 clinical isolate, patient 29; test: microbe, parasite or virus in culture; details: Human immunodeficiency virus 1; Patient Isolate 29
Experimental: as §4

[19] = system: multidrug-resistant HIV-1 clinical isolate, patient 17; test: microbe, parasite or virus in culture; details: Human immunodeficiency virus 1; Patient Isolate 17
Experimental: as §4

[20] = system: multidrug-resistant HIV-1 clinical isolate, patient 16; test: microbe, parasite or virus in culture; details: Human immunodeficiency virus 1; Patient Isolate 16
Experimental: as §4

[21] = system: multidrug-resistant HIV-1 clinical isolate, patient 9; test: microbe, parasite or virus in culture; details: Human immunodeficiency virus 1; Patient Isolate 9
Experimental: as §4

[22] = system: multidrug-resistant HIV-1 clinical isolate, patient 11; test: microbe, parasite or virus in culture; details: Human immunodeficiency virus 1; Patient Isolate 11
Experimental: as §4

[23] = system: multidrug-resistant HIV-1 clinical isolate, patient 19; test: microbe, parasite or virus in culture; details: Human immunodeficiency virus 1; Patient Isolate 19
Experimental: as §4

[24] = system: multidrug-resistant HIV-1 clinical isolate, patient 32; test: microbe, parasite or virus in culture; details: Human immunodeficiency virus 1; Patient Isolate 32
Experimental: as §4

[25] = system: multidrug-resistant HIV-1 clinical isolate, patient 35; test: microbe, parasite or virus in culture; details: Human immunodeficiency virus 1; Patient Isolate 35
Experimental: as §4

[26] = system: multidrug-resistant HIV-1 clinical isolate, patient 30; test: microbe, parasite or virus in culture; details: Human immunodeficiency virus 1; Patient Isolate 30
Experimental: as §4

[27] = system: multidrug-resistant HIV-1 clinical isolate, patient 14; test: microbe, parasite or virus in culture; details: Human immunodeficiency virus 1; Patient Isolate 14
Experimental: as §4

[28] = system: multidrug-resistant HIV-1 clinical isolate, patient 18; test: microbe, parasite or virus in culture; details: Human immunodeficiency virus 1; Patient Isolate 18
Experimental: as §4

[29] = system: multidrug-resistant HIV-1 clinical isolate, patient 31; test: microbe, parasite or virus in culture; details: Human immunodeficiency virus 1; Patient Isolate 31
Experimental: as §4

[30] = system: multidrug-resistant HIV-1 clinical isolate, patient 21; test: microbe, parasite or virus in culture; details: Human immunodeficiency virus 1; Patient Isolate 21
Experimental: as §4

[31] = system: multidrug-resistant HIV-1 clinical isolate, patient 12; test: microbe, parasite or virus in culture; details: Human immunodeficiency virus 1; Patient Isolate 12
Experimental: as §4

[32] = system: multidrug-resistant HIV-1 clinical isolate, patient 27; test: microbe, parasite or virus in culture; details: Human immunodeficiency virus 1; Patient Isolate 27
Experimental: as §4

[33] = system: multidrug-resistant HIV-1 clinical isolate, patient 10; test: microbe, parasite or virus in culture; details: Human immunodeficiency virus 1; Patient Isolate 10
Experimental: as §4

[34] = system: multidrug-resistant HIV-1 clinical isolate, patient 33; test: microbe, parasite or virus in culture; details: Human immunodeficiency virus 1; Patient Isolate 33
Experimental: as §4

[35] = system: multidrug-resistant HIV-1 clinical isolate, patient 13; test: microbe, parasite or virus in culture; details: Human immunodeficiency virus 1; Patient Isolate 13
Experimental: as §4

[36] = system: multidrug-resistant HIV-1 clinical isolate, patient 22; test: IC50 against multidrug-resistant clinical isolates (Table 9a); details: Human immunodeficiency virus 1
Experimental: as §4

[37] = system: multidrug-resistant HIV-1 clinical isolate, patient 34; test: as above; details: Human immunodeficiency virus 1
Experimental: as §4

CC(C)c1nc(CN(C)C(=O)N[C@H](C(=O)N[C@@H](Cc2ccccc2)C[C@H](O)[C@H](Cc2ccccc2)NC(=O)OCc2cncs2)C(C)C)cs1 [RTV, Ritonavir]
potency against the multidrug-resistant strains (in words) [1]: virtually inactive | IC50 [2]: > 1000 nM | IC50 [3]: > 1000 nM | IC50 [4]: > 1000 nM | IC50 [5]: > 1000 nM | IC50 [6]: > 1000 nM | IC50 [7]: 55 nM | IC50 [8]: > 1000 nM | IC50 [9]: > 1000 nM | IC50 [10]: > 1000 nM | IC50 [11]: 18 nM | IC50 [12]: 4.7 nM | IC50 [13]: 19 nM | IC50 [14]: 1900 nM | IC50 [15]: 1820 nM | IC50 [16]: 1140 nM | IC50 [17]: 2660 nM | IC50 [18]: 360 nM | IC50 [19]: 870 nM | IC50 [20]: 1340 nM | IC50 [21]: 530 nM | IC50 [22]: 10 nM | IC50 [23]: 2940 nM | IC50 [24]: 370 nM | IC50 [25]: 2600 nM | IC50 [26]: 1030 nM | IC50 [27]: 40 nM | IC50 [28]: 3020 nM | IC50 [29]: 850 nM | IC50 [30]: 2180 nM | IC50 [31]: 2470 nM | IC50 [32]: 2970 nM | IC50 [33]: 2030 nM | IC50 [34]: 180 nM | IC50 [35]: 1640 nM | IC50 [36]: 560 nM | IC50 [37]: 3380 nM
